Experimental data as given in ChEMBL document CHEMBL5352497, “Aromatic hydrazides: A potential solution for Acinetobacter baumannii infections” (Eur J Med Chem, 2023).
Values after ≈ are worked out from the molar mass of the structure shown. Active and inactive are the calls of the source.

Key:
[1] = test system: Acinetobacter baumannii; experiment: Antibacterial activity against Acinetobacter baumannii ATCC 19606; type: functional
[2] = Hemolytic activity in mouse RBC at 8 ug/ml incubated for 1 hr; type: toxicity, cell-based, Erythrocyte; conditions: red blood cells (erythrocytes), at 8 µg/mL, read-out: Activity
[3] = test system: Acinetobacter baumannii; experiment: Bacteriostatic activity against Acinetobacter baumannii ATCC 19606 assessed as reduction in colony forming unit incubated for 24 hrs; type: functional, organism-based
[4] = test system: Erythrocyte; experiment: Hemolytic activity in mouse RBC at 32 ug/ml incubated for 1 hr; type: toxicity, cell-based; conditions: erythrocyte, 1 h, dose 32 µg/ml
[5] = test system: Acinetobacter baumannii; experiment: microbe, parasite or virus in culture; conditions: ATCC 19606
[6] = test system: Salmonella enterica; experiment: Antibacterial activity against Salmonella enterica ATCC 14028; type: functional
[7] = test system: Klebsiella pneumoniae; experiment: Antibacterial activity against Klebsiella pneumoniae ATCC 27736; type: functional
[8] = test system: Acinetobacter baumannii; experiment: Bacteriostatic activity against Acinetobacter baumannii ATCC 19606 assessed as reduction in colony forming unit incubated for 9 hrs; type: functional, organism-based
[9] = test system: Staphylococcus aureus; experiment: Antibacterial activity against Staphylococcus aureus ATCC 25923; type: functional
[10] = test system: Staphylococcus epidermidis; experiment: Antibacterial activity against Staphylococcus epidermidis ATCC 12228; type: functional
[11] = test system: Bacillus anthracis; experiment: Antibacterial activity against Bacillus anthracis Sterne F32; type: functional
[12] = test system: Acinetobacter baumannii; experiment: Antibacterial activity against Acinetobacter baumannii BAA1605; type: functional
[13] = test system: Escherichia coli; experiment: Antibacterial activity against Escherichia coli MC1061; type: functional
[14] = test system: Acinetobacter baumannii; experiment: Bactericidal activity against Acinetobacter baumannii ATCC 19606 assessed as reduction in colony forming unit at 1 to 4 times MIC measured after 24 hrs; type: functional, organism-based
[15] = test system: HEK293; experiment: Cytotoxicity against HEK293 cells at 32 ug/ml; type: toxicity, cell-based; conditions: human, at 32 µg/mL
[16] = test system: Enterobacter cloacae; experiment: Antibacterial activity against Enterobacter cloacae ATCC 13047; type: functional
[17] = test system: Acinetobacter baumannii; experiment: Antibiofilm activity against Acinetobacter baumannii ATCC 19606 assessed as inhibition of biofilm formation at 0.5 ug/ml by crystal violet assay; type: functional; parameters: scale not given: the % may be the effect or the level left; conditions: dose 0.5 µg/ml
[18] = test system: Acinetobacter baumannii; experiment: Induction of resistance development in Acinetobacter baumannii ATCC 19606 assessed as fold increase in MIC measured after 15 passages; type: functional
[19] = test system: HEK293; experiment: Cytotoxicity against HEK293 cells at 8 ug/ml; type: toxicity, cell-based; conditions: human, dose 8 µg/ml
[20] = test system: Pseudomonas aeruginosa; experiment: Antibacterial activity against Pseudomonas aeruginosa ATCC 27853; type: functional

Row | Structure (SMILES) | MIC [1] [µg/mL] | hemolysis at 1 h, 8 ug/ml [2] [%] | Activity [3] | Activity [4] | MIC [5] [µg/mL] | MIC [6] [µg/mL] | MIC [7] [µg/mL] | Activity [8] | MIC [9] [µg/mL] | MIC [10] [µg/mL] | MIC [11] [µg/mL] | MIC [12] [µg/mL] | MIC [13] [µg/mL] | Activity [14] | Activity [15] [%] | MIC [16] [µg/mL] | Activity [17] [%] | fold change (FC) [18] | Activity [19] | MIC [20] [µg/mL]
1 | O=C(O)c1cn(C2CC2)c2cc(N3CCNCC3)c(F)cc2c1=O [CIPROFLOXACIN] | 1 (≈ 3.02 µM) | < 10 | Active | Non-Toxic | 2 (≈ 6.04 µM) | ≤ 0.063 | ≤ 0.063 | Active | ≤ 0.063 | ≤ 0.063 | 1 (≈ 3.02 µM) | 2 (≈ 6.04 µM) | ≤ 0.063 |  |  |  |  |  |  | 
2 | O=C(NNc1ccc(Cl)cc1)c1ccc(F)cn1 | 1 (≈ 3.76 µM) | < 10 |  | Non-Toxic |  | 64 (≈ 241 µM) | 64 (≈ 241 µM) |  | > 64 | > 64 | > 64 | ≤ 0.125 | 16 (≈ 60.2 µM) | Active | 17 | 16 (≈ 60.2 µM) | 30 | 2 | Non-Toxic | > 64
3 | COc1ccc(NNC(=O)c2ccc(F)cn2)cc1 | 1 (≈ 3.83 µM) | < 10 |  | Non-Toxic |  | > 64 | > 64 |  | > 64 | > 64 | > 64 | 0.5 (≈ 1.91 µM) | > 64 |  |  | > 64 |  |  | Non-Toxic | > 64
4 | O=C(NNc1ccc(Cl)cc1)c1cc2ccccc2[nH]1 | 0.5 (≈ 1.75 µM) | < 10 |  | Non-Toxic |  | > 64 | > 64 |  | > 64 | > 64 | > 64 | 0.25 (≈ 0.875 µM) | > 64 |  |  | > 64 |  |  | Non-Toxic | > 64
5 | O=C(NNc1ccc(Cl)cc1)c1ccccc1 | 0.25 (≈ 1.01 µM) | < 10 |  | Non-Toxic |  | 64 (≈ 259 µM) | 16 (≈ 64.9 µM) |  | 64 (≈ 259 µM) | 64 (≈ 259 µM) | > 64 | 0.5 (≈ 2.03 µM) | 16 (≈ 64.9 µM) |  |  | 16 (≈ 64.9 µM) |  |  | Non-Toxic | > 64
